Experimental data reported in patent publication US20220313698A1, “MODULATORS OF CYSTIC FIBROSIS TRANSMEMBRANE CONDUCTANCE REGULATOR” (Vertex Pharmaceuticals Incorporated, priority 2019, published 2022).

Molecular target: CFTR-mediated chloride transport (Homo sapiens, UniProt P13569)
Assay: Corrector Assay A - membrane potential dye assay (enteroid cells)
Conditions: for Corrector Assay A % activity: % of chloride transport of triple combination control (1 μM (14S)-dispiro macrocycle + 3 μM tezacaftor + 300 nM ivacaftor); for EC50: read-out: Corrector Assay A EC50, human intestinal enteroid cells, 18-24 h incubation, acute 10 μM forskolin + 300 nM ivacaftor

Corrector Assay A % activity	EC50 [µM]	Structure (SMILES)
+++ (+++ is >60%)	< 1	CC1(C)C[C@@H]2CC[C@H](c3ccccn3)Nc3cccc(n3)S(=O)(=O)NC(=O)c3ccc(N4CCN(CC5CC5)C4=O)nc3N1C2 [Compound 331]
++ (++ is 30-60%)	< 1	CC(C)(C)c1ccc2c(n1)N1C[C@@H](CC[C@@H](C3CCCCC3)Nc3cccc(n3)S(=O)(=O)NC2=O)CC1(C)C (single isomer, unassigned) [Compound 234]
++ (++ is 30-60%)	< 1	CC(C)(C)c1ccc2c(n1)N1C[C@@H](CC[C@@H](c3cccc(C(F)(F)F)n3)Nc3cccc(n3)S(=O)(=O)NC2=O)CC1(C)C (single isomer, unassigned) [Compound 95]
+++ (+++ is >60%)	< 1	CC(C)(C)c1ccc2c(n1)N1C[C@@H](CCC(c3ccc(-c4cc[nH]n4)cn3)Nc3cccc(n3)S(=O)(=O)NC2=O)CC1(C)C (some centres unmarked) [Compound 130]
+ (+ is <30%)		CC(C)(C)c1ccc2c(n1)N1CC(CC1(C)C)OCCNc1cccc(n1)S(=O)(=O)NC2=O (single isomer, unassigned) [Compound 258, 8-tert-butyl-12,12-dimethyl-15-oxa-2λ^6-thia-3,9,11,18,23-pentaazatetracyclo[17.3.1.111,14.05,10]tetracosa-1(22),5(10),6,8,19(23),20-hexaene-2,2,4-trione]
+++ (+++ is >60%)	< 1	COC(=O)C1CC[C@@H]2CN(c3nc(C(C)(C)C)ccc3C(=O)NS(=O)(=O)c3cccc(n3)N1)C(C)(C)C2 (single isomer, unassigned) [Compound 224]
+++ (+++ is >60%)	< 1	CC(C)(C)c1ccc2c(n1)N1C[C@@H](CCC(c3ccc(C4CC4)cn3)Nc3cccc(n3)S(=O)(=O)NC2=O)CC1(C)C (some centres unmarked) [Compound 170]
+ (+ is <30%)	> 3	CC(C)(C)c1ccc2c(n1)N1C[C@@H](CC[C@@H](C3CCN(CCC(F)(F)F)CC3)Nc3cccc(n3)S(=O)(=O)NC2=O)CC1(C)C (single isomer, unassigned) [Compound 239]
+++ (+++ is >60%)	< 1	CN1CCN(c2ccc(C3CC[C@@H]4CN(c5nc(C(C)(C)C)ccc5C(=O)NS(=O)(=O)c5cccc(n5)N3)C(C)(C)C4)nc2)CC1 (some centres unmarked) [Compound 200]
++ (++ is 30-60%)	< 1	CN(C)CCNc1cccc([C@H]2CC[C@@H]3CN(c4nc(C(C)(C)C)ccc4C(=O)NS(=O)(=O)c4cccc(n4)N2)C(C)(C)C3)n1 [Compound 189]
++ (++ is 30-60%)	1 to 3	CC(C)(C)c1ccc2c(n1)N1C[C@@H](CC[C@@H](c3cccc(C4=CCNCC4)n3)Nc3cccc(n3)S(=O)(=O)NC2=O)CC1(C)C [Compound 141]
+++ (+++ is >60%)	< 1	CC(C)(C)c1ccc2c(n1)N1C[C@@H](CCC(c3cc(C4COC4)ccn3)Nc3cccc(n3)S(=O)(=O)NC2=O)CC1(C)C (single isomer, unassigned) [Compound 25]
++ (++ is 30-60%)	< 1	CC(C)(C)c1ccc2c(n1)N1C[C@@H](CCC(c3ccc(CCCN)cn3)Nc3cccc(n3)S(=O)(=O)NC2=O)CC1(C)C (stereo partly drawn) [Compound 138, (14S)-17-[5-(3-aminopropyl)pyridin-2-yl]-8-tert-butyl-12,12-dimethyl-2λ^6-thia-3,9,11,18,23-pentaazatetracyclo[17.3.1.111,14.05,10]tetracosa-1(23),5(10),6,8,19,21-hexaene-2,2,4-trione]
+++ (+++ is >60%)	< 1	Cn1ccc(-c2ccc(C3CC[C@@H]4CN(c5nc(C(C)(C)C)ccc5C(=O)NS(=O)(=O)c5cccc(n5)N3)C(C)(C)C4)nc2)n1 (some centres unmarked) [Compound 60]
+++ (+++ is >60%)	< 1	CC1(C)C[C@@H]2CC[C@H](c3ccccn3)Nc3cccc(n3)S(=O)(=O)NC(=O)c3ccc(C4=CCC(F)(F)CC4)nc3N1C2 [Compound 325, (14S,17R)-8-(4,4-Difluorocyclohex-1-en-1-yl)-12,12-dimethyl-17-(pyridin-2-yl)-2λ^6-thia-3,9,11,18,23-pentaazatetracyclo[17.3.1.111,14.05,10]tetracosa-1(22),5,7,9,19(23),20-hexaene-2,2,4-trione]
+++ (+++ is >60%)	< 1	CC(C)(C)c1ccc2c(n1)N1C[C@@H](CC[C@H](c3cccc(CCCN)n3)Nc3cccc(n3)S(=O)(=O)NC2=O)CC1(C)C [Compound 134, (14S,17R)-17-[6-(3-aminopropyl)pyridin-2-yl]-8-tert-butyl-12,12-dimethyl-2λ^6-thia-3,9,11,18,23-pentaazatetracyclo[17.3.1.111,14.05,10]tetracosa-1(23),5(10),6,8,19,21-hexaene-2,2,4-trione]
+++ (+++ is >60%)	< 1	CC(C)(C)OC(=O)N1CCC(c2ccnc(C3CC[C@@H]4CN(c5nc(C(C)(C)C)ccc5C(=O)NS(=O)(=O)c5cccc(n5)N3)C(C)(C)C4)c2)CC1 (stereo partly drawn) [Compound 117, tert-butyl 4-{2-[(14S)-8-tert-butyl-12,12-dimethyl-2,2,4-trioxo-2λ^6-thia-3,9,11,18,23-pentaazatetracyclo[17.3.1.111,14.05,10]tetracosa-1(23),5(10),6,8,19,21-hexaen-17-yl]pyridin-4-yl}piperidine-1-carboxylate]
+++ (+++ is >60%)	> 3	CC(C)(C)c1ccc2c(n1)N1C[C@@H](CCC(C(=O)O)Nc3cccc(n3)S(=O)(=O)NC2=O)CC1(C)C (single isomer, unassigned) [Compound 230]
++ (++ is 30-60%)	< 1	CC(C)(C)c1ccc2c(n1)N1C[C@@H](CCC(c3cc(C4CCNCC4)ccn3)Nc3cccc(n3)S(=O)(=O)NC2=O)CC1(C)C (stereo partly drawn) [Compound 124, (14S)-8-tert-butyl-12,12-dimethyl-17-[4-(piperidin-4-yl)pyridin-2-yl]-2λ^6-thia-3,9,11,18,23-pentaazatetracyclo[17.3.1.111,14.05,10]tetracosa-1(23),5(10),6,8,19,21-hexaene-2,2,4-trione]
+ (+ is <30%)	< 1	CC1(C)C[C@@H]2CC[C@@H](c3ccccn3)Nc3cccc(n3)S(=O)(=O)NC(=O)c3ccc(Br)nc3N1C2 [Compound 247, (14S,17S)-8-bromo-12,12-dimethyl-17-(pyridin-2-yl)-2λ^6-thia-3,9,11,18,23-pentaazatetracyclo[17.3.1.111,14.05,10]tetracosa-1(22),5,7,9,19(23),20-hexaene-2,2,4-trione]

Structure (SMILES)	Corrector Assay A % activity	EC50 [µM]
CC(C)(C)CCOc1cccc(-c2ccc3c(n2)N2C[C@@H](CC[C@H](c4cccc(C(F)(F)F)n4)Nc4cccc(n4)S(=O)(=O)NC3=O)CC2(C)C)n1 [Compound 304, (14S,17R)-8-[6-(3,3-dimethylbutoxy)pyridin-2-yl]-12,12-dimethyl-17-[6-(trifluoromethyl)pyridin-2-yl]-2λ^6-thia-3,9,11,18,23-pentaazatetracyclo[17.3.1.111,14.05,10]tetracosa-1(22),5,7,9,19(23),20-hexaene-2,2,4-trione]	++ (++ is 30-60%)	< 1
